The source of these data is patent US5932580A, “PDGF receptor kinase inhibitory compounds their preparation and compositions” (priority 1997, dated 1999).

Assay [1] relates to human internal mammary artery smooth muscle cells (IMA SMC). In words: Inhibition of cell proliferation and recovery, human IMA SMC. It counts as cell-based. The text has this:
Smooth muscle cells (SMC) were obtained under aseptic conditions from porcine abdominal aortas, and human internal mammary arteries (IMA). Specimens from the operating room were transferred on ice to the tissue culture room. Each artery was cut open and the endothelial surface mechanically scraped. The vessels were then cut into 2 mm^2 fragments which were placed in culture dishes with Dulbecco's modified Eagle's medium (DMEM) supplemented with 15% (v/v) fetal calf serum (FCS), 100 u/ml penicillin, 100 μg/ml streptomycin, and […] L-glutamine. The tissue fragments were then placed in an incubator at 37° C. under 9% CO2 atmosphere until SMC outgrowth was detected (typically within 3-7 days). […] For experiments testing the effect of tyrphostins on growth inhibition and recovery (see below), SMC from passages 1-3 were replated in 15 mm wells pretreated with 3 μg/cm^2 fibronectin (Biological Industries, Kibbutz Beit Haemek, Israel) at 15,000 cells/well.
Inhibition of cell proliferation and recovery: Monolayer cell growth inhibition and recovery experiments were repeated 3 or 4 times. Each experiment was performed in triplicate. Approximately 15,000 cells (SMC or EC) in 1 ml of culture medium supplemented with 15% FCS were seeded on day 0 in 15 mm-wells precoated with fibronectin. Cultures were treated with a tyrphostin (10 μM) dissolved in 0.1% DMSO on days 1 and 3. On day 6, cultures were washed and the cells allowed to recover. Typically cells were counted on days 3 and 5 for inhibition, and on days 7, 10 and 15 for recovery, other schedules were also employed as reported below. The medium supplemented with serum (M-199 with ECGS for EC, and DMEM for SMC) was changed every other day throughout the experiment.
FIG. 9 presents the maximal inhibitory and recovery effects on human IMA SMC growth inflicted by 10 or 25 μM of AG1851 and AG1295. Cells were grown in the presence of the specified tyrphostins and were counted after seven days in culture. On day 7 the cultures were washed and the cells allowed to recover. Seven days later they were counted for recovery. The bar graph show the maximal inhibition and the recovery in each experiment and for controls.

Assay [2] concerns the target T1, EGFR (Mus musculus, UniProt Q01279).
T1 construct: Membranes were prepared from confluent cultures of Swiss 3T3 cells; endogenous in cells; host or cells: Swiss 3T3 (obtained from E. Rozengurt, London)
Briefly: EGFR autophosphorylation, isolated membranes or intact Swiss 3T3 cells. It counts as biochemical. The settings on record: read-out: IC50 (50% inhibition of phosphorylation) EGFR.
Method: Assay of receptor autophosphorylation in intact 3T3 cells: Confluent Swiss 3T3 cells in 24-well plates (Nunc) were incubated for 20-24 hours in serum-free DMEM. Subsequently, tyrphostins were added at concentrations ranging from 0 to 100 μM (final DMSO concentration, 0.5%) and the incubation was continued for 6-8 hours. The cells were then stimulated with 100 ng/ml PDGF-BB for 5 min at room temperature or 600 ng/ml EGF for 2.5 min on ice. The growth factor treatment was terminated by washing twice with ice-cold PBS and the cells were scraped off the wells in 60 μl lysis buffer containing 20 mM Hepes (pH 7.4), 150 mM NaCl, 1% Triton X-100, 10 mM sodium pyrophosphate, 50 mM NaF, 2 mM sodium-o-vanadate, 20 μm zinc acetate, 10 nM EDTA, 2 mM [ethylenebis(oxyethilenenitrilo)] tetraacetic acid, 1 mM phenylmethylsulfonyl fluoride, and 5 μg/ml leupeptin.
The cell lysates were clarified by centrifugation (cooled microfuge, 17,000 rpm, 15 min) and analyzed by SDS-PAGE (6.5% gels) and immunoblotting with anti-phosphotyrosine antibodies (either PY 20, ICN, and subsequently a peroxidase-coupled secondary antibody, or RC20-peroxidase conjugate, Affinity, Nottingham, United Kingdom). The blots were developed with a chemiluminescence detection system (Western Light, Tropix, or ECL, Amersham).
Membrane autophosphorylation assays: Membranes were prepared from confluent cultures of Swiss 3T3 cells as described [22]. For measuring receptor autophosphorylation, 10 μg membrane protein per assay were incubated for 20 min on ice in the presence of 1.2 μg/ml EGF or 2 μg/ml PDGF, or both; 50 mM Hepes (pH 7.5); and 3 mm MnCl2 (final concentrations) in a volume of 45 μl. In order to test the effects and determine the IC50 value of various tyrphostins, these were added in a volume of 0.5 μl (in DMSO; final concentration, 0.5%) 15 min before addition of the growth factors, in a range of concentrations. […] For quantification of radioactivity in electrophoresis gels, a Phospho-Imager (Molecular Dynamics, Fuji, or Bio-Rad) was used according to the instructions of the manufacturers. […]

In assay [3] the target is T2, SRC kinase (Gallus gallus, UniProt P00523, Y527F).
T2 construct: expressed in transfected cells; host or cells: NIH 3T3, stably transfected (gift of S. Courtneidge, Heidelberg)
Briefly: Src kinase activity assay (immunoprecipitate from src-transformed NIH 3T3 cells). It counts as biochemical, chicken. Particulars: read-out: IC50 (50% inhibition of phosphorylation) SRC kinase. As for the experimental part:
Src kinase activity assay: src-transformed NIH 3T3 cells were grown in 24-well plates to confluency; rinsed twice with a solution containing 20 mM Tris, 0.1 mM sodium-o-vanadate, and 150 mM NaCl (pH 7.5); and lysed in 100 μl/well of lysis buffer containing 20 mM Tris (pH 8.0), 150 mM NaCl, 1% Nonidet P-40, 2.5 mM EDTA, 10 mM NaF, 1% trasylol, and 20 μm leupeptin. The lysate was clarified by centrifugation and subjected to immunoprecipitation with the anti-Src monoclonal antibody MAb 327 (Oncogene Science; 0.5 μg antibody/80 μg protein) for 1 hour at 4° C. Then, goat anti-mouse IgG (Sigma; 0.2 μg per 0.5 μg monoclonal antibody 327) was added and incubation was continued for 30 mi followed by another 40 min of incubation with 10 μl of protein A-Sepharose Cl-4B (Pharmacia). The immunoprecipitates were washed five times with the lysis buffer and twice with kinase buffer containing 40 mM Hepes (pH 7.4), 0.5 mM dithiothreitol, 5 mM MnCl2, and 0.1 mM sodium-o-vanadate. The immunoprecipitates were suspended in kinase buffer and aliquots corresponding to 40 μg of cell lysate protein were preincubated with or without tyrphostin for 15 min at 30° C. Then, the kinase reaction was performed in the presence of 2 μg of acid-treated enolase and 10 μCi of [γ-^32 P]ATP (2 μM) in a final volume of 30 μl. The reaction was terminated by addition of SDS-PAGE sample buffer (6% SDS, 30% β-mercaptoetlhanol, 40% glycerol, and 0.5 mg/ml bromophenol blue) and the incorporation of radioactivity in the enolase was analyzed by SDS-PAGE and autoradiography as well as Phosphor-Imager quantification.

Assay [4] relates to porcine endothelial cells (EC). Briefly: Inhibition of cell proliferation and recovery, porcine EC. The format is cell-based. Particulars: Sus scrofa, Endothelial cell; FIG. 8 experiment; 10 μM; read-out: maximal inhibitory effect on porcine EC proliferation. The text has this: Endothelial cells (EC) were isolated from porcine carotid arteries. Using aseptic procedure, both common carotid arteries were isolated, and the distal end of each artery was cannulated through an arteriotomy and ligated. The arteries were then perfused with phosphate buffered saline (PBS) and the proximal end ligated isolating a 5-7 cm long blood-free portion of the artery. The isolated portion of each artery was filled with PBS containing calcium and magnesium and 0.1% collagenase (Boehringer Manneheim, Germany). The segments were excised and incubated for 10 min at 37° C. in sterile bottles containing PBS. […] Cells were seeded on fibronectin-coated dishes at a seeding density of 15,000 cells/well and incubated at 37° C. in 9% CO2. ECGS (25 μg/ml) was added every other day until confluence was observed, typically within 6-8 days.
Inhibition of cell proliferation and recovery: Monolayer cell growth inhibition and recovery experiments were repeated 3 or 4 times. Each experiment was performed in triplicate. […] Cultures were treated with a tyrphostin (10 μM) dissolved in 0.1% DMSO on days 1 and 3. On day 6, cultures were washed and the cells allowed to recover. Typically cells were counted on days 3 and 5 for inhibition, and on days 7, 10 and 15 for recovery, other schedules were also employed as reported below.

pIC50: −log10 of the molar value.

T1 sequence (Q01279 25-1210): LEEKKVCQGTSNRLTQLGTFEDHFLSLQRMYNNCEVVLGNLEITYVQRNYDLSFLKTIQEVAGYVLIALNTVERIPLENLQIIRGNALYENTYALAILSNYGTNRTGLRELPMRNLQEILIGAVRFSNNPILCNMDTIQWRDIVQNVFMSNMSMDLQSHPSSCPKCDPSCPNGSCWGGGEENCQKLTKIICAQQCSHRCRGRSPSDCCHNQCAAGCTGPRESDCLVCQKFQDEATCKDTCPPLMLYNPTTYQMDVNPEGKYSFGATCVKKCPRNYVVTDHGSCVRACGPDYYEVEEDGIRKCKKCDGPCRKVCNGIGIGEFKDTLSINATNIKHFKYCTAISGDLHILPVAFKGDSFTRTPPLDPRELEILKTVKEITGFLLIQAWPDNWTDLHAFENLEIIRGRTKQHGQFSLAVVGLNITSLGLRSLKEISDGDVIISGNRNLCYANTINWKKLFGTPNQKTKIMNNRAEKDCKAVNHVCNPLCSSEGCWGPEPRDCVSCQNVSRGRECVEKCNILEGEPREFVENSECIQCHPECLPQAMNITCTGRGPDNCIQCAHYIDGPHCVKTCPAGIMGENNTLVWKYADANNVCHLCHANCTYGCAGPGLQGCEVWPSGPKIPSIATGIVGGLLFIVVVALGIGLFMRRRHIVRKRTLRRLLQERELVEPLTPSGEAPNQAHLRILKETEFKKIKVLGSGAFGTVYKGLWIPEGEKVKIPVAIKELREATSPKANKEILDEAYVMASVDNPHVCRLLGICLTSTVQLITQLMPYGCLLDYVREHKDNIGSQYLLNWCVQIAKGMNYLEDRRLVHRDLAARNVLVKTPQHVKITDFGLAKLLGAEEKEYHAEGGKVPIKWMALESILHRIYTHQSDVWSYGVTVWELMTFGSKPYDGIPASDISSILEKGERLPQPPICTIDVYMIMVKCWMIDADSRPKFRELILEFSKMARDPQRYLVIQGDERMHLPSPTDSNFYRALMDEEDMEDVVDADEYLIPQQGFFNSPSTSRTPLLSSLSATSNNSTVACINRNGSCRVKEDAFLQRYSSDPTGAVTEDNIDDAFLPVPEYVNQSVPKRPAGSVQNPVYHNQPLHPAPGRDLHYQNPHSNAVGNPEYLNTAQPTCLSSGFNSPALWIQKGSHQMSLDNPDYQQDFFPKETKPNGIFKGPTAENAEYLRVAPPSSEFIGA

In the case of `Cc1nc2cc3nc(-c4ccccc4)cnc3cc2n1C` [AG1851], the “reversibility of the effect on IMA SMC upon removal of the tyrphostin” value in assay [1] (25 μM) is reported as “completely reversible”. In addition, the inhibition at 25 µM in assay [1] (Homo sapiens, 120 h, read-out: mean reduction / inhibition of IMA SMC proliferation compared to untreated or DMSO-treated cells) came out at 54%. Moreover, the pIC50 in assay [2] and in assay [3] was below 4.52 throughout.

Take `Cc1nc2cc3nc(-c4cccs4)cnc3cc2n1C` [AG1992]: the pIC50 in assay [2] and in assay [3] was below 4.52 each time. Further, the inhibition at 10 µM in assay [4] turned out to be 52%.
